From ChEMBL document CHEMBL5465560, “Selectivity Literature for EUbOPEN Chemogenomic Library” (2024)
One block for each compound: values may come before it.

How the values were obtained:
[1] = biological target: Dual specificity mitogen-activated protein kinase kinase 2 (Homo sapiens) (UniProt P36507); conditions: at 10 µM
[2] = biological target: Type-2 angiotensin II receptor (Homo sapiens) (UniProt P50052); experiment: Selectivity interaction (Eurofins CEREP Diversity Profile (receptors and ion channels)) EUB0000279b AGTR2; conditions: at 10 µM
[3] = biological target: T1, Mitogen-activated protein kinase kinase kinase 7 (Homo sapiens) (UniProt O43318); experiment: Selectivity interaction (Kinase panel (literature)) EUB0001199aCl MAP3K7; conditions: at 1 µM
T1 sequence (whole entry): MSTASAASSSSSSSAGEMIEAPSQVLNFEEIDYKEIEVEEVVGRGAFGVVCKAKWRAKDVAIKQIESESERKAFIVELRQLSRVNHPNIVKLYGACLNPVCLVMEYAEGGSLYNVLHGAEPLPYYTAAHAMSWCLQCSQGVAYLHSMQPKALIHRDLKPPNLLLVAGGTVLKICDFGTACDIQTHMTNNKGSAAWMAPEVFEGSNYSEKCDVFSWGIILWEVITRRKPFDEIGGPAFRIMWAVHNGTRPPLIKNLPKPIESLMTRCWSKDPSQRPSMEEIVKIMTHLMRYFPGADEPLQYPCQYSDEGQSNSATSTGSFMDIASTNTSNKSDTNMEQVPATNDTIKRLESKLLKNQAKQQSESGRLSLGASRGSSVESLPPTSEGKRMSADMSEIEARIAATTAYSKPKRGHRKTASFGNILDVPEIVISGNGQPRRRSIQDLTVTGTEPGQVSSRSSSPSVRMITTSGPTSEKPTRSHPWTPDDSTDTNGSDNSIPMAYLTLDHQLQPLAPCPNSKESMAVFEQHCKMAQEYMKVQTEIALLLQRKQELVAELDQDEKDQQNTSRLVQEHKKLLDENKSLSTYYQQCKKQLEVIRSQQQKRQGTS

[4] = biological target: Platelet-derived growth factor receptor beta (Homo sapiens, UniProt P09619); experiment: Selectivity interaction (KinomeScan (DiscoverX)) EUB0000607a PDGFRB; conditions: at 10 µM
[5] = biological target: T2, Protein kinase C iota type (Homo sapiens) (UniProt P41743); experiment: Selectivity interaction (KinomeScan (DiscoverX)) EUB0001619a PRKCI; conditions: at 1 µM
T2 sequence (whole entry): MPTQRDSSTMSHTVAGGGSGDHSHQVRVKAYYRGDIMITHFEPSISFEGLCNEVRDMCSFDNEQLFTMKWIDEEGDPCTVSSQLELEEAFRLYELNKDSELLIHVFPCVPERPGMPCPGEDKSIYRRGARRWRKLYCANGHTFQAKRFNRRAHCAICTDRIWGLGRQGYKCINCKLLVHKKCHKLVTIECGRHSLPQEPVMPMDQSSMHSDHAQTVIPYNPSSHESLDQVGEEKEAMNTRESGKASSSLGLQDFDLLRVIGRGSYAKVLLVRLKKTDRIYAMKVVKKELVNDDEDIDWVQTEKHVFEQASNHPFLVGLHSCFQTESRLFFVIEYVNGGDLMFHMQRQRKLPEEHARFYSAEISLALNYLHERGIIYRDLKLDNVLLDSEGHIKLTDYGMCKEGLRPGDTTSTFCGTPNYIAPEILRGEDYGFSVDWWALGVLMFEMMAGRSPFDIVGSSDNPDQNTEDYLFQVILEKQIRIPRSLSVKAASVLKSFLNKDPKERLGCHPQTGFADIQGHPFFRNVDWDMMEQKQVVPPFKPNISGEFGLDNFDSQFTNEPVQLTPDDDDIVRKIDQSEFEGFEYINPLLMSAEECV

[6] = biological target: T3, MAP kinase-activated protein kinase 5 (Homo sapiens) (UniProt Q8IW41); experiment: Selectivity interaction (KinomeScan (DiscoverX)) EUB0000229b MAPKAPK5; conditions: at 10 µM
T3 sequence (whole entry): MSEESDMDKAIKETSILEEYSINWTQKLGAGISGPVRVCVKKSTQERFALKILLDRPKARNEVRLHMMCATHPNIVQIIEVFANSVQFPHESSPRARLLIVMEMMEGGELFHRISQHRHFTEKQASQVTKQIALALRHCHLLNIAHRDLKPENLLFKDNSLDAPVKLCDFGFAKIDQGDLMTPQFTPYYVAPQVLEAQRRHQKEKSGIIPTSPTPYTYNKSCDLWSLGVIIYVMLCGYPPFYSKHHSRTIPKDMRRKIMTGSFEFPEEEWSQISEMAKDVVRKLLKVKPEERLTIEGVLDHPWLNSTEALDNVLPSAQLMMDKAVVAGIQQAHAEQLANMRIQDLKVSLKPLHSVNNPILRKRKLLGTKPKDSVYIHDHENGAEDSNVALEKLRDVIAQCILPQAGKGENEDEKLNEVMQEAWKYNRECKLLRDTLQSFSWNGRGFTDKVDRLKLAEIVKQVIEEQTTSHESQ

[7] = biological target: TRAF2 and NCK-interacting protein kinase (Homo sapiens) (UniProt Q9UKE5); experiment: Selectivity interaction (KinomeScan (DiscoverX)) EUB0000666a TNIK; conditions: at 10 µM
[8] = biological target: T4, TGF-beta receptor type-1 (Homo sapiens) (UniProt P36897); experiment: Selectivity interaction (KinomeScan (DiscoverX)) EUB0000092b TGFBR1; conditions: at 10 µM
T4 sequence (whole entry): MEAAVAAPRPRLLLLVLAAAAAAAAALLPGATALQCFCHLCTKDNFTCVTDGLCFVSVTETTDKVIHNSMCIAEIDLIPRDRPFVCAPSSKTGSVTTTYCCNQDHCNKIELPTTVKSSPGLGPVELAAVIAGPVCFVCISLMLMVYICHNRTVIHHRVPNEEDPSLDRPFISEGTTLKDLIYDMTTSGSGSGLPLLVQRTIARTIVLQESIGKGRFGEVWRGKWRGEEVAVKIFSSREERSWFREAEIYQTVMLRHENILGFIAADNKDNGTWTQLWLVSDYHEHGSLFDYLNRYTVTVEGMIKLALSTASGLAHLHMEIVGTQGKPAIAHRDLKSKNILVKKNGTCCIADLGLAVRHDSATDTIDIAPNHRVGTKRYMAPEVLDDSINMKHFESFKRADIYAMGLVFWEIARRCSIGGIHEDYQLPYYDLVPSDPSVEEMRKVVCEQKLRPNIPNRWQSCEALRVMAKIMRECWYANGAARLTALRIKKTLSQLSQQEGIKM

[9] = biological target: Protein-tyrosine kinase 6 (Homo sapiens, UniProt Q13882); experiment: Selectivity interaction (KinomeScan (DiscoverX)) EUB0000092b PTK6; conditions: at 10 µM
Sequence of Protein-tyrosine kinase 6 (Q13882 whole entry, looked up): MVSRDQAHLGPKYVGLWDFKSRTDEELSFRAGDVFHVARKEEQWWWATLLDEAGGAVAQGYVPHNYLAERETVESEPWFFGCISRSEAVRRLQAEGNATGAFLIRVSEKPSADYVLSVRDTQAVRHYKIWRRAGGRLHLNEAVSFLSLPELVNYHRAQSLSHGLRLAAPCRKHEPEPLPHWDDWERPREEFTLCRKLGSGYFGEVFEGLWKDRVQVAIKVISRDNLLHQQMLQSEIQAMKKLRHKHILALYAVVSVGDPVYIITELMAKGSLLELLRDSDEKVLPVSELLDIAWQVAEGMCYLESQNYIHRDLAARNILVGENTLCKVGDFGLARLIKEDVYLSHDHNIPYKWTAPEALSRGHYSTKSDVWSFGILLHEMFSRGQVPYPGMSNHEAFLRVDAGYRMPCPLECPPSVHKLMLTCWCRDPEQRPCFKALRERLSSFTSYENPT

Sequence of Platelet-derived growth factor receptor beta (P09619 whole entry): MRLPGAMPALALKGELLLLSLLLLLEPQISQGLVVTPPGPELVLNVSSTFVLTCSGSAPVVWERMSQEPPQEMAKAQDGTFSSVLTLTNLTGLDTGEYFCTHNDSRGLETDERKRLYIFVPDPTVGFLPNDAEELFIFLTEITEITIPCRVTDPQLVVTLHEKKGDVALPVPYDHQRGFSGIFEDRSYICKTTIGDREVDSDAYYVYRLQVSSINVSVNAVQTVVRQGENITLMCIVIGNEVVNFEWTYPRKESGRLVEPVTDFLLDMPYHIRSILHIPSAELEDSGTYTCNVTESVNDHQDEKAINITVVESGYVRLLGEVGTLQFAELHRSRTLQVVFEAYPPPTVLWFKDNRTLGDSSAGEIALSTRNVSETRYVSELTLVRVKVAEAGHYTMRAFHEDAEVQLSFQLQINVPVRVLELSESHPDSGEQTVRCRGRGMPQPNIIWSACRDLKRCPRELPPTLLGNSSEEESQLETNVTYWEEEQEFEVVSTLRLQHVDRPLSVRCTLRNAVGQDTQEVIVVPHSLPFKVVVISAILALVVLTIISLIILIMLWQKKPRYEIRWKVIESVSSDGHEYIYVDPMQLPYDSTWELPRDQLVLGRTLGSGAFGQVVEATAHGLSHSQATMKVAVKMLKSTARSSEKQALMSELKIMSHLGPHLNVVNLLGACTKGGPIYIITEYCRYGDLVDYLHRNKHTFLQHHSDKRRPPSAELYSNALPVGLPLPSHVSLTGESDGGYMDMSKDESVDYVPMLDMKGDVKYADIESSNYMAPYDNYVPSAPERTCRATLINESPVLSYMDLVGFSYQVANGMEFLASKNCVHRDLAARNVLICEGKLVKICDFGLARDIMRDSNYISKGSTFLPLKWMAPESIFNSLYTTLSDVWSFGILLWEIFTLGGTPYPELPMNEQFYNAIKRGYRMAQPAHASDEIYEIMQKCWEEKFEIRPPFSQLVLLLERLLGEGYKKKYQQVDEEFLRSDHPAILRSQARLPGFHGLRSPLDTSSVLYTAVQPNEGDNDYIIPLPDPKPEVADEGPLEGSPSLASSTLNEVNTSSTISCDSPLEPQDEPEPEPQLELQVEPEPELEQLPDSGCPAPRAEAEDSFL
Sequence of Dual specificity mitogen-activated protein kinase kinase 2 (Homo sapiens) (P36507 whole entry): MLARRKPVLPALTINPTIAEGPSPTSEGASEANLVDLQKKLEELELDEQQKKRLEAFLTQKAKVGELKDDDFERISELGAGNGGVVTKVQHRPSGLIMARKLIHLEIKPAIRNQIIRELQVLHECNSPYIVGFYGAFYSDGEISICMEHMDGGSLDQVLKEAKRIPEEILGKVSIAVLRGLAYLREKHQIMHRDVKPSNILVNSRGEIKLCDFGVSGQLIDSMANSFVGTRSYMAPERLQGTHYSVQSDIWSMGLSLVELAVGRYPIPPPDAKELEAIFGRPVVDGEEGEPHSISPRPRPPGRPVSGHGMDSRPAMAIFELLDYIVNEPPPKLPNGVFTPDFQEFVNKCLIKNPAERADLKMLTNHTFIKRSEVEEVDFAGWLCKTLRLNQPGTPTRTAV
Sequence of Type-2 angiotensin II receptor (Homo sapiens) (P50052 whole entry): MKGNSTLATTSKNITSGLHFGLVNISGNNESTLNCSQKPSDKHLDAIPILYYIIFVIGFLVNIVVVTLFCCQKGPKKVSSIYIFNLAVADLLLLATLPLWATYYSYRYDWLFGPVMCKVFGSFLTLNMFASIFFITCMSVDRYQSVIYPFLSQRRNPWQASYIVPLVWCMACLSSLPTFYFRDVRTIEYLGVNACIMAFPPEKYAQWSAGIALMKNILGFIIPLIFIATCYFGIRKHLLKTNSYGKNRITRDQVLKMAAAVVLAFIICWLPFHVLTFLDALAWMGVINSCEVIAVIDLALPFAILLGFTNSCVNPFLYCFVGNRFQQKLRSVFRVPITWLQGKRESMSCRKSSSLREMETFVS
Sequence of TRAF2 and NCK-interacting protein kinase (Homo sapiens) (Q9UKE5 whole entry, looked up): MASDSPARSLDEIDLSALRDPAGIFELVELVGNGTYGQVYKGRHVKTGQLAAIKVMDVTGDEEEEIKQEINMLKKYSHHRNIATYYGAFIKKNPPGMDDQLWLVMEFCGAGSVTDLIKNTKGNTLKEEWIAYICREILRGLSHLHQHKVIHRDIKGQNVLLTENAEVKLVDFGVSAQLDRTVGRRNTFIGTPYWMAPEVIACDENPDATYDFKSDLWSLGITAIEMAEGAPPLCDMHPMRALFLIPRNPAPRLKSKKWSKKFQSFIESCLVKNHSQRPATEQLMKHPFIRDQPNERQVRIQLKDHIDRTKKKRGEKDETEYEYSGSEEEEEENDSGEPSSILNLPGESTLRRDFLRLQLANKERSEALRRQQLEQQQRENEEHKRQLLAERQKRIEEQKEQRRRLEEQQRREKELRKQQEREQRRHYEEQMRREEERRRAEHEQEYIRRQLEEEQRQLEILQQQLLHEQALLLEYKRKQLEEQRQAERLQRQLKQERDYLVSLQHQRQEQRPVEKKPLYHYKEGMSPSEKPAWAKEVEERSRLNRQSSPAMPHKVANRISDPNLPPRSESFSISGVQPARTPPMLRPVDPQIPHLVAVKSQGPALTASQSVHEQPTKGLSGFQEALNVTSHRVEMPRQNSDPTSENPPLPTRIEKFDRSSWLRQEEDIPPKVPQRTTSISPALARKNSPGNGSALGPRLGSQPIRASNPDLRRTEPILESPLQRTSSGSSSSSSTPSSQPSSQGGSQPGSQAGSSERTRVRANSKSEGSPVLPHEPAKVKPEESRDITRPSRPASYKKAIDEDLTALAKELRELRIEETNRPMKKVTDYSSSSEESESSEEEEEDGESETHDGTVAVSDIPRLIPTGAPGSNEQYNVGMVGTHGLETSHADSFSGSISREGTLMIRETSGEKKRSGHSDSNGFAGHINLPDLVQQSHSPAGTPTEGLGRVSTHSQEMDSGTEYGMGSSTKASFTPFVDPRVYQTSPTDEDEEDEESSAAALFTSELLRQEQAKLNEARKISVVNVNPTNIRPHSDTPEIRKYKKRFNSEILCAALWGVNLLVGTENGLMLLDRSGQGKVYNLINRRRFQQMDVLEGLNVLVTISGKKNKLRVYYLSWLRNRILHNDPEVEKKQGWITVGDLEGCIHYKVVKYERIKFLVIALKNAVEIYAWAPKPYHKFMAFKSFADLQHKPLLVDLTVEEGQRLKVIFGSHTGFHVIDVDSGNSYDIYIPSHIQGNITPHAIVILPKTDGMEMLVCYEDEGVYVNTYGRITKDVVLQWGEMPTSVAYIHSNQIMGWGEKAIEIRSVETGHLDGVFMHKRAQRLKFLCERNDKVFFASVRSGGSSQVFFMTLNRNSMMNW

- % of control [1]: 100%
SMILES: CCN(CC)CCCCNc1ncc2cc(-c3cc(OC)cc(OC)c3)c(NC(=O)NC(C)(C)C)nc2n1

- % of control [2]: 106%
SMILES: CC(=O)c1cc(-c2ccccc2OCC2CC2)c2ncccn12

- % of inhibition [3]: 3%
SMILES: CN1Cc2nccc(-c3cn(C)nc3-c3ccc(F)cc3)c2C1=O

SMILES: CNC(=O)Nc1ccc(-c2nc(N3CC4CCC(C3)O4)c3cnn(C4CCC5(CC4)OCCO5)c3n2)cc1
- % of control [4]: 89%

SMILES: N#Cc1cccc(-c2c[nH]c3ncnc(N4CCOCC4)c23)c1
- % of control [5]: 100%

SMILES: COc1cc(N(C)c2ccnc3ccc(C(F)(F)F)cc23)cc(OC)c1OC
- % binding [6]: 63%

SMILES: O=C(NOC[C@H](O)CO)c1ccc(F)c(F)c1Nc1ccc(I)cc1F
- % of control [7]: 100%

SMILES: CCC(=O)N1CCN(c2ccc(-n3c(=O)ccc4cnc5ccc(-c6cnc7ccccc7c6)cc5c43)cc2C(F)(F)F)CC1
- % of control [8]: 70%
- % of control [9]: 51%
